Test results published in paper PMC11076738, “A rapid and simple non-radioactive assay for measuring uptake by solute carrier transporters” (Frontiers in Pharmacology, 2024).

Tests used:
Type in all cases: cell-based
[1] = molecular target: T1, NTCP (Homo sapiens, UniProt Q14973); assay: TCA-d4 uptake assay (LC-MS/MS) in HepG2 NTCP cells
T1 construct: His-tag; expressed in transfected cells
T1 sequence (Q14973 1-349): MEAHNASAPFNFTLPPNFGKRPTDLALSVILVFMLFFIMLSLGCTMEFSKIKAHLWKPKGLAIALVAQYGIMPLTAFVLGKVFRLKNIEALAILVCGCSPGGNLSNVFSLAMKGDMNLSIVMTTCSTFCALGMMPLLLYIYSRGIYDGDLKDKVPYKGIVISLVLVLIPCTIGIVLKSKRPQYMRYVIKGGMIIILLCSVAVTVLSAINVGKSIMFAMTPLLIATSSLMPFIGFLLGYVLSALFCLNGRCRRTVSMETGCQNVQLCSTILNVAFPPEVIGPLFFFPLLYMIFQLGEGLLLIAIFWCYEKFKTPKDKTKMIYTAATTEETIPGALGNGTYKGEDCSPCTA
Description: HepG2 NTCP cells were seeded into 12-well plates at a density of 2×10^5/well. After a 48 h incubation, cells were carefully washed with uptake buffer (10 mM HEPES, 100 mM NaCl, 2 mM KCl, 1 mM MgCl2, 1 mM CaCl2, pH 7.4) twice and incubated in 0.5 mL of uptake buffer for 15 min at 37 °C. […] Cells were then allowed to take up 5 μM of TCA-d4 at 37 °C for another 15 min. After incubation, cells were washed with uptake buffer three times and lysed with 200 μL of ethanol. The cell lysate was transferred to a new tube and the supernatant was collected by centrifugation at 12,000 rpm for 10 min at 4°C. TCA-d4 uptake was quantified with LC-MS/MS.
Prepared samples were separated on an Agilent 1290 II system (CA, United States) equipped with an XSelect HSS T3 C18 reverse phase column (2.1 × 150 mm, 3.5 μm). […] To separate TCA-d4, the mobile phase consisted of solution A (5 mM ammonium formate) and solution B (methanol). […]
Targeted analytes were monitored in a negative multiple-reaction monitoring (MRM) mode on an Agilent 6495C triple quadrupole LS/MS system (CA, United States). […] Leucine-d3 and TCA-d4 were monitored in negative ion mode with MRM ion pairs at 135.1 > 89.2 (collision energy: 14 eV) and 518.0 > 124.0 (collision energy: 65 eV), respectively. […]

[2] = system: BMP reporter gene; assay: BMP reporter gene assay (Id1-Luc) in HEK293T cells; details: HEK293T cells with Id1-Luc reporter; 3 μM, 12 h
Description: HEK293T cells transfected with Id1-Luc reporter construct were seeded into a 96-well plate (190 μL/well of 3,000 cells/mL)) and then treated with 3 μM JH7 for 12 h. FK506 and DMSO were used as positive and negative controls, respectively. Cells were removed 100 μL DMEM and added in 40 μL Bright-Glo™ Luciferase reagent (per well) and placed on a plate-shaker for 10 min. Bright-Glo™ Luciferase Assay was performed with Ensight plate reader.

[3] = molecular target: T2, LAT1 (Homo sapiens, UniProt Q01650); assay: leucine-d3 uptake assay (LC-MS/MS) in LS174T cells; details: 5 μM leucine-d3, 15 min uptake, mean ± s.d., n = 3, read-out: IC50, inhibition of leucine-d3 uptake
T2 construct: endogenous in cells; host or cells: LS174T (wild type)
Description: LS174T cells were seeded into 12-well plates at a density of 1×10^6/well. After a 48 h incubation, cells were carefully washed with prewarmed Na^+-free uptake buffer (10 mM Tris-HCl, 150 mM KCl, 5 mM MgCl2, 1 mM EGTA, pH 7.4) twice and incubated in 0.5 mL of Na^+-free uptake buffer at 37 °C for 15 min. Cells were washed with Na^+-free uptake buffer once again and incubated with different concentrations of JPH203 or DMSO at 37 °C for 15 min. Cells were then allowed to take up 5 μM of leucine-d3 at 37 °C for another 15 min. After incubation, cells were washed with Na^+-free uptake buffer three times and lysed with 200 μL of acetonitrile. The cell lysate was transferred to a new tube and the supernatant was collected by centrifugation at 12,000 rpm for 10 min at 4°C. Leucine-d3 uptake was quantified with LC-MS/MS.
Prepared samples were separated on an Agilent 1290 II system (CA, United States) equipped with an XSelect HSS T3 C18 reverse phase column (2.1 × 150 mm, 3.5 μm). […]
Targeted analytes were monitored in a negative multiple-reaction monitoring (MRM) mode on an Agilent 6495C triple quadrupole […] system (CA, United States). […] Leucine-d3 and TCA-d4 were monitored in negative ion mode with MRM ion pairs at 135.1 > 89.2 (collision energy: 14 eV) and 518.0 > 124.0 (collision energy: 65 eV), respectively. […]

[4] = molecular target: T2, LAT1; assay: 3H-leucine uptake assay in LS174T cells; details: read-out: IC50, inhibition of 3H-leucine uptake, radioactive method, mean ± s.d., n = 3
Description: The inhibitory activity of JPH203 on LAT1 was analyzed by measuring the cell uptake of ^3H-leucine as previously described with minor modifications ([Oda et al., 2010]). Similar to leucine-d3 uptake assay, LS174T cells were washed twice and incubated in Na^+-free uptake medium (10 mM Tris-HCl, 150 mM KCl, 5 mM MgCl2, 1 mM EGTA, pH 7.4) for 15 min. Cells were added with JPH203 or DMSO and incubated for another 15 min before adding ^3H-leucine. After 15 min incubation, cells were washed three times and lysed with 0.2 N NaOH plus 0.2% SDS. The cell lysate was transferred to a new tube containing 1 mL of optiphase supermix. ^3H-leucine uptake was quantified with a scintillation counter.

T2 sequence (Q01650 whole entry): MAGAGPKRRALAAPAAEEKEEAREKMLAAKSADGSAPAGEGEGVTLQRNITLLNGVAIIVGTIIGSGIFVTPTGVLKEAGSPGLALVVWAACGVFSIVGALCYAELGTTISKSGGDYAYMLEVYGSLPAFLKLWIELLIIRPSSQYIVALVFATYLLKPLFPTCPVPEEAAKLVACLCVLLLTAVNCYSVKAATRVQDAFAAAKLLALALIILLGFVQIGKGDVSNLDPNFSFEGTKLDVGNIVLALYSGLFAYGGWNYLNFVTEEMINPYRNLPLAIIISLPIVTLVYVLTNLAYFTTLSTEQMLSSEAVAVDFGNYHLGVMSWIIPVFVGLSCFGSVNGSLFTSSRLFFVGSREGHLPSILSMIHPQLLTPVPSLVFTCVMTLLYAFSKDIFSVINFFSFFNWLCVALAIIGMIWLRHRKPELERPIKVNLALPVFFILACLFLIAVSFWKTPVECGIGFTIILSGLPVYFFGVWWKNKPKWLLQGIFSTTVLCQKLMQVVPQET
T2 sequence (P08195 102-630 partner): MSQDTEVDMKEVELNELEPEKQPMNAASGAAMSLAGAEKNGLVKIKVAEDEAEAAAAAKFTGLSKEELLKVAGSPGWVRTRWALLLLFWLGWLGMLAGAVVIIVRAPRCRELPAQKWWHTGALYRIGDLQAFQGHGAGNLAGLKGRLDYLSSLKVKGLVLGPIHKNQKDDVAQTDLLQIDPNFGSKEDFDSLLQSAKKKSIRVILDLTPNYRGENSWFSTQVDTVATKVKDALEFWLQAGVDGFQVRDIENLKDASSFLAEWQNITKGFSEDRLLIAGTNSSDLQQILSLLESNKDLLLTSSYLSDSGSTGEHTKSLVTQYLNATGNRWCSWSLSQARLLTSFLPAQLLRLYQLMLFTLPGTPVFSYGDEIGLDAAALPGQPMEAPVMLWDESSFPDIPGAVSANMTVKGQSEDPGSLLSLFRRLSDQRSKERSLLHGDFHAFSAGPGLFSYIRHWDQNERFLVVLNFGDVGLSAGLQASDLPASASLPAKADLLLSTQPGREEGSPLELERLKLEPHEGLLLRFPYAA

IC50 ([1]; 5 μM TCA-d4, 15 min uptake, mean ± s.d., n = 3, read-out: IC50, inhibition of TCA-d4 uptake) | TCA-d4 uptake (% of control) ([1]; rapafucins at a final concentration of 2 μM) | IC50 [3] | IC50 [4] | SMILES | activation of BMP reporter gene [2]
49.3 ± 0.8 nM | 19.35 % of control | – | – | CCCC[C@H]1C(=O)N[C@@H](Cc2ccc(F)cc2)C(=O)N(C)CC/C=C/C(=O)OCC(C)(C)C(=O)C(=O)N2CCCC[C@H]2C(=O)O[C@H](CCc2ccc(OC)c(OC)c2)c2cccc(c2)OCC(=O)N(C)CC(=O)N[C@@H](Cc2cccs2)C(=O)N1C [JH7] | did not activate
– | – | 1110 ± 210 nM | 960 ± 90 nM | Nc1cc(COc2c(Cl)cc(C[C@H](N)C(=O)O)cc2Cl)c2oc(-c3ccccc3)nc2c1 [JPH203] | –
